# Source: patent US20240065983A1, “COMPOSITION AND METHOD FOR TREATING COVID-19” (University of South Florida, priority 2021, published 2024)
# Tests used:
# [1] = tested on: SARS CoV2 variants (WA, UK B.1.1.7, SA B.1.351); type: cell-based, SARS-CoV-2
# SARS-CoV-2 delta = type: cell-based
compound,measurement,setting,value
"CC(O)c1ccc(CCOc2ccc(CC3SC(=O)NC3=O)cc2)nc1 (stereo not drawn) [LG, leriglitazone]",expression of CoV2-N gene and S genes,[1],significantly inhibited
same,"expression of inflammatory genes TNFα, IL-6, IL1β","[1]; LG 20 uM, all CoV2 strains",down-regulated at the transcript level
same,expression of N and inflammatory gene transcripts,SARS-CoV-2 delta,decreased expression of N and several inflammatory gene transcripts
